Source: a melting point compilation (Tetko et al.)

Row | SMILES | melting point [°C]
1 | CC(=O)C1CCC2C3C=CC4=CC(=O)CCC4(C)C3CCC12C (stereo not given) | 170
2 | Cc1ccncc1C | -11
3 | O=C(O)CS | -11
4 | CCC(CO)(CO)COCC(CC)(CO)CO | 110
5 | C=CCC1(CC(=C)Br)C(=O)NC(=O)NC1=O | 168
6 | CCOC(=O)CCC(C)C1CCC2C3C(O)C(Br)C4CC(OC(C)=O)CCC4(C)C3CC(OC(C)=O)C12C (stereo not given) | 164 to 167
7 | Cc1cc(O)c(C)c(C)c1O | 173
8 | CCCCCCCCCCCCCC(=O)Oc1ccc(N=Cc2ccc(N(C)C)cc2)cc1 | 106
9 | CC(C)(C)OC(=O)N1C2CCC1CC(=O)C2 | 58 to 59
10 | COc1ccc(C=O)c(Cl)c1OC | 71 to 72
11 | Nc1ccc(S(=O)(=O)c2ccc(NCC(=O)O)cc2)cc1 | 194
12 | Cc1c(C)c(CCl)c(C)c(CCl)c1C | 117
13 | CSc1sc(Cl)c2c1C(=O)CC(C)(C)C2 | 126 to 129
14 | N#CCCP(CCC#N)c1ccccc1 | 73
15 | CC1=CCC(O)(C(C)C)CC1 (stereo not given) | 14.7
16 | OCc1cc(O)ccc1O | 100
17 | CCCCCc1ccc(-c2ccc(C#N)cc2)cc1 | 34
18 | Cc1ncc(CSSCc2cnc(C)c(O)c2CO)c(CO)c1O | 219
19 | O=[N+]([O-])c1ccc(/C(Cl)=C\c2cccc(/C=C(/Cl)c3ccc([N+](=O)[O-])cc3[N+](=O)[O-])c2)c([N+](=O)[O-])c1 | 215
20 | S=C=Nc1c(Cl)c(Cl)cc(Cl)c1Cl | 88 to 90
21 | O=C1SC(Cl)(Cl)c2nc3c(cc21)C(=O)SC3(Cl)Cl | 178 to 185

Row | SMILES | melting point [°C]
22 | CNC(=Nc1ncccc1C)SC | 25 to 27
23 | CCC1(O)CCC2(C)C(CCC3C4CCC(=O)C4(C)CCC32)C1 (stereo not given) | 113 to 116
24 | CCCCCCCCCCCCCCCCCc1ccccc1 | 32
25 | COC(=O)C12ON1c1ccccc1C2=O (stereo not given) | 221
26 | CC(=O)Nc1ccc(C=CC(=O)c2ccccc2)cc1 | 179
27 | CC(C)NCCCC1(C(N)=O)c2ccccc2-c2ccccc21 | 94.5
28 | CCOC(=O)c1sc(SC(C)C)c2c1CC(C)(C)CC2=O | 87 to 89
29 | CN(C)CC(O)c1ccc(O)c(O)c1 (stereo not given) | 149
30 | O=C(O)Cc1ccc(C(=O)CCl)s1 | 101 to 104
31 | CC(=O)OCC(=O)O | 67.5
32 | COC(=O)[C@@H]1C[C@@H]2CCCN2[C@@]12C(=O)c1cccc3cccc2c13 | 145
33 | C1CCC2OCCOCCOC3CCCCC3OCCOCCOC2C1 (stereo not given) | 66 to 70
34 | CCCCCCCCCCCCCCCCOCC(O)CO (stereo not given) | 64
35 | NCCOc1ccccc1Cl | 40
36 | N#CC(=Cc1cccc(O)c1)C(=O)O | 230 to 233
37 | CCOP(=S)(OCC)SC1OCCOC1SP(=S)(OCC)OCC (stereo not given) | -2
38 | NCS(=O)(=O)O | 180 to 185
39 | COc1cc(CCC(C)=NO)ccc1O | 82 to 84
40 | COc1cc2c(c(O)c1OC)C(C)NCC2 (stereo not given) | 160
41 | SC1=NC2(CCCCC2)NN1c1ccccc1 | 146 to 149
42 | CCCCNC(=O)OCC#CI | 66

Row | SMILES | melting point [°C]
43 | CC12C=C(C(=O)Oc3ccccc3)C(CC1)C2(C)C (stereo not given) | 64
44 | CSC(=NC#N)Nc1ccccc1 | 185 to 186
45 | OCC(CO)(CO)NCCCNC(CO)(CO)CO | 169
46 | Nc1ncc([N+](=O)[O-])cc1Br | 214 to 218
47 | CC12CCC(C(Cl)C1=O)C2(C)C (stereo not given) | 106
48 | CCOC(=O)[C@H](Cc1ccc(O)cc1)NC(=O)c1ccccc1 | 118 to 121
49 | O=S(=O)(Cl)c1cccc2nsnc12 | 148 to 150
50 | CC(=O)NCCSC(C)=O | 32.5
51 | NNc1ccc(C(=O)O)cc1 | 205
52 | O=[N+]([O-])c1ccc2c(c1)CCN2S(=O)(=O)c1ccccc1 | 128 to 130
53 | CN(C)[Si](C)(N(C)C)N(C)C | -11
54 | Cc1cccc(C)c1NC1=NCCCS1 | 140
55 | C=C1CC(=CC)C(=O)OC2CCN3CC=C(COC(=O)C1(C)O)C23 (stereo not given) | 218
56 | CCNc1nc(Cl)nc(NC(C)(C)C)n1 | 178
57 | FC(F)(F)C(F)(F)C(F)(F)C(F)(F)C(F)(F)C(F)(F)C(F)(F)C(F)(F)C(F)(F)C(F)(F)C(F)(F)C(F)(F)I | 99 to 101
58 | CC1(c2ccccc2)CC(C(=NOCC(O)CN2CCN(c3ccccc3)CC2)c2cc3ccccc3o2)C1 (stereo not given) | 96 to 97
59 | NC(=O)C[C@H](NC(=O)OCC1c2ccccc2-c2ccccc21)C(=O)O | 180
60 | CN(C)S(=O)(=O)Cl | -13
61 | O=C(N[C@@H](C(=O)O)c1ccccc1)OCC(Cl)(Cl)Cl | 141 to 142
62 | Brc1ccc(Oc2c(Br)c(Br)c(Br)c(Br)c2Br)cc1 | 184

The remaining lines, values ahead:

Row | melting point [°C] | SMILES
63 | 46 to 47 | COC(=O)c1cccc2cc[nH]c12
64 | 219 | CC(=O)Nc1ccc2c(OC(C)=O)c(-c3ccccc3)[nH]c2c1
65 | 168 to 169 | Nc1ccc(C(=O)O)cc1OC(F)(F)F
66 | 155 | O=C(C=Nc1ccccc1)c1ccc(C(=O)C=Nc2ccccc2)cc1
67 | 192 to 193 | O=C1OC(c2ccccc2)=NC1=Cc1ccc(Cl)cc1
68 | 215 | Cn1c(/C(C#N)=N/Nc2ccc(Cl)cc2)nc2ccccc21
69 | 75 to 75.5 | COc1ccc2c(c1)CCC(=Cc1ccccc1)C2=O
70 | 265 to 267 | O=C(O)c1cccc2c1-c1ccc(I)cc1C2
71 | 174 | O=C(Nc1nc2ccccc2s1)C(C(F)(F)F)C(F)(F)F
72 | 210 | Cc1cc(=O)oc2cc(OP(=O)(O)O)ccc12
73 | 172 to 174 | NC(=S)C1=Cc2ccccc2OC1
74 | 131 to 133 | COc1nn(-c2ccccc2)cc1/C=C/C=O
75 | 184 to 186 | Nc1ccc2c(c1)CCC2=O
76 | 154 to 155 | COc1cccc2cc(C(=O)c3cc4ccccc4o3)oc12
77 | 176 | CC1=C(C(=O)OCc2ccccc2)C(c2cccc([N+](=O)[O-])c2)NC(=S)N1 (stereo not given)
78 | 173 | CCOC(=O)c1nn(-c2ccc(C)cc2)c(C)c1C(=O)c1noc(-c2cccc3ccccc23)c1S(=O)(=O)c1ccccc1
79 | 87 to 88 | O=Cc1ccc(-c2ccc(OC(F)(F)F)cc2)o1
80 | 254 | N#C/C(=N/Nc1cccc2ccccc12)c1nc2ccccc2s1
81 | 211 | CC(C)N=c1cc2n(-c3ccc(Cl)cc3)c3ccccc3nc-2cc1Nc1ccc(Cl)cc1
82 | 214 | Nc1c(C=Cc2ccccc2)ccc2c1C(=O)c1ccccc1C2=O

Row | melting point [°C] | SMILES
83 | 300 | O=C1C=CC(=O)N1c1ccc(N2C(=O)C=CC2=O)cc1
84 | 149 | O=C1C=C(NCc2ccccn2)C(=O)c2ccccc21
85 | 64.5 | CCOC(=O)N1c2ccccc2C=CC1OCC (stereo not given)
86 | 132 | FC(F)(F)c1cccc(C(c2ccccc2)(c2ccccc2)n2cncn2)c1
87 | 167 | COc1ccc(-c2nnc3n2NC(c2ccc(N(C)C)cc2)S3)cc1 (stereo not given)
88 | 261 to 263 | COc1cccc(C=Nc2n[nH]c(N=Cc3cccc(OC)c3O)c2Cc2ccc(Cl)cc2)c1O
89 | 158 | COc1ccc(/N=N/c2c(N)nn3c(C(F)(F)F)cc(C)nc23)cc1
90 | 104 | COc1ccc(C(=O)CBr)c(OC)c1
91 | 226 | CC(C)Nc1cccnc1N1CCN(C(=O)c2cc3cc(NS(C)(=O)=O)ccc3[nH]2)CC1
92 | 280 | Cc1cccc(/N=N/c2c(N)nn3c(C(F)(F)F)cc(=O)[nH]c23)c1
93 | 142 | COc1ccc2nnc(-c3ccc(C(F)(F)F)cc3)n2n1
94 | 56 to 58 | Nc1ccc(C(F)(F)F)cc1N
95 | 58 to 62 | O=[N+]([O-])c1cc(C(F)(F)F)ccc1Oc1ccccc1Br
96 | 81 | Nc1ccccc1-c1ccccc1N
97 | 186 | CC(=O)c1nn(-c2ccccc2[N+](=O)[O-])c(=N)s1
98 | 40 to 41 | COC(=O)c1cc(OCC(F)(F)F)ccc1OCC(F)(F)F
99 | 72 to 74 | O=[N+]([O-])c1cccc(-n2cccc2)c1
100 | -54 | Cc1ccc(C(C)(C)C)cc1
101 | 301 to 302 | O=C1NC(=O)c2cccc3cccc1c23
102 | > 300 | C/C(=N\CCN)c1c(O)c2ccccc2n(-c2ccccc2)c1=O

Row | melting point [°C] | SMILES
103 | 254 | Oc1ccc(C=Cc2cc(O)cc(O)c2)cc1
104 | 179 | NC(=O)c1cc([N+](=O)[O-])ccc1Cl
105 | 54 to 56 | O=[N+]([O-])c1cc(C(F)(F)F)ccc1N1CCCC1
106 | 132 to 133 | Cc1ccc(-n2nc(C)cc2O)cc1
107 | 238 | CC(=O)C1=C(C)NC(=O)NC1c1ccccc1 (stereo not given)
108 | 189 | Cc1ccc(NC(=O)C(C(F)(F)F)C(F)(F)F)cc1C
109 | 316 | O=c1[nH]cc(C(F)(F)F)c(=O)[nH]1
110 | 185 | Cc1c(C)c2c(c(C)c1O)CCC(C)(COc1ccc(CC3SC(=O)NC3=O)cc1)O2 (stereo not given)
111 | 73 to 75 | Nc1ccc(I)cc1Cl
112 | 69 | Cc1ccc(C(=O)/C=C/c2ccc(Br)o2)o1
113 | 70 | CCCCOc1ccc(-c2nnc3sc(-c4ccc(Cl)c([N+](=O)[O-])c4)nn23)cc1
114 | 138 | O=C(c1ccc2c3c(cccc13)CC2)C(O)c1ccccc1 (stereo not given)
115 | 180 | S=c1sc2nc3ccccc3nc2s1
116 | 136 to 141 | Cc1ccnc(N)c1[N+](=O)[O-]
117 | 120 | CCOC(=O)c1c(SC)nn(C(=O)Cc2ccccc2)c1N
118 | 193 | CNc1ccc(N)c2c1C(=O)c1ccccc1C2=O
119 | 126 | COc1ccc(N2C(=O)C3ON=C(C(=O)c4ccc(C)cc4)C3C2=O)cc1 (stereo not given)
120 | 190 | c1ccc2c(N=Nc3cccc4ccccc34)cccc2c1
